Test systems include ACHN renal; SW-620 colon; U251 CNS; HCT-116 colon; HT29 colon; K-562 leukemia; SK-MEL-2 melanoma; HL-60(TB) leukemia; HOP-92 NSCLC; RPMI-8226 leukemia.
What all share (test): NCI-60 cell line screen, 48 h

The source of these data is PubChem BioAssay (NCI).

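Exposure lasted 48 hours, with cells grown in 96-well plates and compounds tested at five concentrations. GI50 marks 50% less growth. TGI marks complete inhibition of growth.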

For the compound `CC(C)(C)NC(C1=CC(C)(C)c2ccccc2C1=O)c1ccccc1` (configuration not stated), the GI50 with ACHN renal was 1.49 µM; in the experiment on SW-620 colon, 1.53 µM; in the experiment with U251 CNS it was 1.54 µM; with HCT-116 colon, 1.35 µM; in the experiment on HT29 colon it was 1.54 µM; in the experiment on K-562 leukemia, 1.67 µM. Besides, the GI50 with SK-MEL-2 melanoma is 1.49 µM; in the experiment on HL-60(TB) leukemia, 0.868 µM. In addition, the TGI amounted to 2.82 µM in the experiment with ACHN renal; 2.92 µM in the experiment on SW-620 colon; 2.87 µM in the experiment with U251 CNS; 2.64 µM in the experiment with HCT-116 colon; 2.88 µM in the experiment on HT29 colon; 3.86 µM with K-562 leukemia. In addition, the TGI worked out at 3.08 µM with SK-MEL-2 melanoma and 2.9 µM with HL-60(TB) leukemia.

Regarding `CC1=C[C@H]2c3c(c(O)c(O)c4oc5c(C)cccc5c(=O)c34)[C@H](c3cc(O)c(O)c4oc5c(C)cccc5c(=O)c34)[C@H]2C(C)(C)C1`, the GI50 with ACHN renal is 2.31 µM; in the experiment on SW-620 colon, 1.93 µM; with U251 CNS, 1.23 µM; with HCT-116 colon, 0.899 µM; with HT29 colon it was 2.12 µM; with HOP-92 NSCLC it was 2.39 µM. Besides, the GI50 with K-562 leukemia was 1.67 µM; in the experiment with SK-MEL-2 melanoma it was 2.05 µM; in the experiment on HL-60(TB) leukemia it was 3 µM. For the same compound, the TGI in the experiment on ACHN renal worked out at 10.7 µM; in the experiment on SW-620 colon, 10 µM; in the experiment on U251 CNS, 7.09 µM; in the experiment on HCT-116 colon it was 2.69 µM; with HT29 colon, 8.92 µM; with HOP-92 NSCLC, 6.69 µM. Also, the TGI with K-562 leukemia was > 100 µM; with SK-MEL-2 melanoma, 5.1 µM; with HL-60(TB) leukemia, 9.23 µM.

`Oc1ccccc1-c1nn(CNc2cccc(Cl)c2)c(=S)o1`: the GI50 in the experiment with SW-620 colon was 27.2 µM; in the experiment on U251 CNS, 4.91 µM; in the experiment on HCT-116 colon, 25.3 µM; with HT29 colon, 18.5 µM; in the experiment with HOP-92 NSCLC it was 1.86 µM; with RPMI-8226 leukemia, 15.3 µM. The GI50 was 38.4 µM with K-562 leukemia and > 100 µM in the experiment with SK-MEL-2 melanoma. The TGI with SW-620 colon is > 100 µM; in the experiment on U251 CNS, 39.6 µM; in the experiment on HCT-116 colon, > 100 µM; in the experiment with HT29 colon, > 100 µM; with HOP-92 NSCLC it was 31.7 µM; with RPMI-8226 leukemia it was 38.5 µM. Moreover, the TGI in the experiment with K-562 leukemia and in the experiment on SK-MEL-2 melanoma was > 100 µM each time.

`Cc1ccc(NC(=O)CCC(CC(=O)C(C)(C)C)=NNC(=O)C(=O)NN)cc1C`: the TGI in the experiment with ACHN renal, in the experiment with SW-620 colon, in the experiment on HT29 colon, with RPMI-8226 leukemia, in the experiment on K-562 leukemia and in the experiment on SK-MEL-2 melanoma was > 100 µM throughout. Further, the TGI in the experiment with HL-60(TB) leukemia is > 100 µM.

Regarding `Cn1c2ccccc2c(=S)c2ccccc21`, the TGI in the experiment on ACHN renal, with SW-620 colon, in the experiment with U251 CNS, with HCT-116 colon, in the experiment on HT29 colon and in the experiment with HOP-92 NSCLC was > 100 µM each time. Moreover, the TGI in the experiment on RPMI-8226 leukemia, with K-562 leukemia and in the experiment on SK-MEL-2 melanoma was > 100 µM throughout.

Consider `COc1ccc2c(c1)C(=O)/C(=C/c1cccc(OCC(=O)Nc3nc4c(s3)CCCC4)c1)O2`, for which the GI50 with ACHN renal is 1.47 µM; with SW-620 colon it was 0.805 µM; in the experiment with U251 CNS, 0.772 µM; with HCT-116 colon, 1.13 µM; with HT29 colon, 0.642 µM; in the experiment with HOP-92 NSCLC, 0.18 µM. Also, the GI50 with K-562 leukemia is 1 µM; in the experiment with SK-MEL-2 melanoma, 0.577 µM; in the experiment with HL-60(TB) leukemia, 0.241 µM. For the same compound, the TGI came out at 2.79 µM with ACHN renal; 2.07 µM with SW-620 colon; 4.97 µM in the experiment on U251 CNS; 2.34 µM in the experiment on HCT-116 colon; 1.8 µM with HT29 colon; 0.372 µM in the experiment on HOP-92 NSCLC. Further, the TGI was > 23 µM in the experiment on K-562 leukemia, 1.34 µM in the experiment with SK-MEL-2 melanoma and 0.681 µM in the experiment with HL-60(TB) leukemia.

As to `Cc1c(Cl)ccc2c1NC(=O)C2(O)C(C(=O)c1ccccc1)c1ccccc1` (configuration not stated), the TGI with ACHN renal was > 100 µM; with SW-620 colon it was > 100 µM; with U251 CNS it was > 100 µM; in the experiment with HCT-116 colon, > 100 µM; in the experiment with HT29 colon, > 100 µM; with RPMI-8226 leukemia, 69 µM. Moreover, the TGI in the experiment with K-562 leukemia was > 100 µM; in the experiment on SK-MEL-2 melanoma it was > 100 µM; with HL-60(TB) leukemia, 39.5 µM.

For `C/C(=C\C(C)COCc1ccccc1)[C@H](COCc1ccccc1)OCc1ccccc1` (some centres not stated), the TGI in the experiment with ACHN renal, in the experiment with SW-620 colon, with U251 CNS, with HCT-116 colon, in the experiment with HT29 colon and in the experiment with HOP-92 NSCLC was > 100 µM throughout. Further, the TGI in the experiment with RPMI-8226 leukemia, in the experiment with K-562 leukemia and in the experiment on SK-MEL-2 melanoma was > 100 µM throughout.

In the case of `O=c1/c(=C/c2cccc([N+](=O)[O-])c2)sc2nc3ccccc3n12`, the TGI in the experiment on ACHN renal, with SW-620 colon, with HCT-116 colon, with HT29 colon, with K-562 leukemia and with SK-MEL-2 melanoma was > 100 µM in each case. For the same compound, in the experiment on HL-60(TB) leukemia, the TGI is > 100 µM.

On to `CC1CC2(C)ON=C(c3ccccc3)N2c2ccccc2S1` (configuration not stated), for which the GI50 was 32.8 µM in the experiment on ACHN renal; 39.3 µM with SW-620 colon; 34.9 µM in the experiment with U251 CNS; 21.4 µM with HCT-116 colon; 27.9 µM in the experiment with HT29 colon; 20.4 µM with RPMI-8226 leukemia. Further, the figures for the GI50 in the experiment on K-562 leukemia and in the experiment on HL-60(TB) leukemia were 16.3 µM and 23.5 µM, respectively. The TGI came to 49.6 µM in the experiment with HCT-116 colon, 80 µM in the experiment on HT29 colon, 69.2 µM in the experiment on RPMI-8226 leukemia and 43 µM in the experiment on K-562 leukemia.

Turning to `COc1ccc2nc(-c3cc(-c4cc(OC)c(OC)c(OC)c4)n[nH]3)[nH]c2c1`, the GI50 in the experiment on ACHN renal is 2.63 µM; in the experiment on SW-620 colon, 2.89 µM; with U251 CNS it was 2.9 µM; in the experiment with HCT-116 colon, 1.81 µM; in the experiment on HT29 colon, 2.76 µM; in the experiment with RPMI-8226 leukemia, 0.643 µM. The values for the GI50 with K-562 leukemia and in the experiment with HL-60(TB) leukemia were 2.01 µM and 1.69 µM, respectively. In addition, the TGI in the experiment with ACHN renal is 10.7 µM; with SW-620 colon, 11.1 µM; in the experiment on U251 CNS, 11.5 µM; in the experiment on HCT-116 colon, 6.65 µM; with HT29 colon it was 16.2 µM; in the experiment with RPMI-8226 leukemia, 2.53 µM. Also, the TGI was > 100 µM in the experiment with K-562 leukemia and 4.81 µM in the experiment with HL-60(TB) leukemia.
